EP1043318A1 (priority 1997, dated 1999)

Assays:
[1] = test system: C. trachomatis D323; assay: Activity on Chlamydia trachomatis in infected cell culture; format: cell-based; conditions: for No. of unchanged cells: 100 viewing fields, cell control 9.000, infected cells 6.000
[2] = test system: herpes simplex type 1 (VPG-1/Leningrad/248/88); assay: Antiviral activity on herpes virus, cytopathic effect in Vero cell culture; format: cell-based, herpes simplex virus; conditions: unchanged Vero cells after 36 hours
[3] = test system: M. tuberculosis 61 (S); assay: Activity on pathogenic mycobacteria, growth on Lewenstein-Jensen medium (sensitive strain); format: cell-based; conditions: strain sensitive to control preparations; concentration of the preparation 50.0 g/l (table title); incubated 30 days
[4] = test system: primary culture of humans lymphocytes; assay: Interferon-inducing activity in primary lymphocyte culture (immunoenzyme determination of INF); format: cell-based, human
[5] = Acute toxicity in mice; set-up: species or system non-linebred white mice; conditions: mouse, in vivo, iv, by mouth or intravenously, 14 days observation
Procedure: Acute toxicity was determined on non-linebred white mice weighing 18-20 g. The claimed compounds were prepared in a range of concentrations: 1500, 700, 500, 100, 20 and 5 µg/kg. Five animals were used to study each specific concentration of a compound. The preparation was administered once a day by mouth of intravenously. The observation period was 14 days On days 1, 8 and 15 the animals in every group were weighed. For a control we used animals who received the emulsion without the test compounds. All animals, both those that died in the course of the experiment and those that survived to the end of the experiment, were opened to allow macroscopic examination of internal organs. In the course of the experiment no loss of weight was observed or any change in behavior or external appearance, nor was there any loss of life. Based on the results of the macroscopic examination of internal organs of the animals in the test and the control groups, no pathological findings were made, [text missing]

Row | Compound | number of cells in 100 fields ([2]; 10 mg/l) | number of cells in 100 fields ([2]; 50 mg/l) | number of cells in 100 fields ([2]; 100 mg/l) | M. tuberculosis 61S growth [3] | Concentration of INF in induction mixture after 24 hrs. of incubation ([4]; 1 mg/l of the preparation) | Concentration of INF in induction mixture after 24 hrs. of incubation ([4]; 10 mg/l of the preparation) | Concentration of INF in induction mixture after 24 hrs. of incubation ([4]; 100 mg/l of the preparation) | other results
1 | 2-hydroxyethylammonium salt of 5,5'-(p-nitrobenzylidene)bisbarbituric acid [III] | 2000 | 3000 | 5500 |  |  |  |  | percent protection of the cells against infection ([1]; 10 mg/l): 60%; No. of unchanged cells ([1]; 10 mg/l): 7800; percent protection of the cells against infection ([1]; 100 mg/l): 65%; No. of unchanged cells ([1]; 100 mg/l): 7950
2 | Nc1nc2c(ncn2COCCO)c(=O)[nH]1 [Acyclovir, reference compound] | 8000 |  |  |  |  |  |  | 
3 | CC[C@@H](CO)NCCN[C@@H](CC)CO [Ethambutol] |  |  |  | complete suppression of growth |  |  |  | 
4 | O=C1NC(=S)NC(=O)C1C(c1ccc(Cl)cc1)C1C(=O)NC(=S)NC1=O [IX] | 10000 | 10000 | 3000 |  | 5,6 ± 0,8 IU/3·10^4 lymph/ml | 21,0 ± 0,9 IU/3·10^4 lymph/ml | 35,2 ± 1,6 IU/3·10^4 lymph/ml | 
5 | NNC(=O)c1ccncc1 [Isoniazid] |  |  |  | complete suppression of growth |  |  |  | 
6 | [H]/N=C(/N)N[C@H]1[C@H](O)[C@@H](O)[C@H](O[C@@H]2O[C@@H](C)[C@](O)(C=O)[C@H]2O[C@@H]2O[C@@H](CO)[C@H](O)[C@@H](O)[C@@H]2NC)[C@@H](N/C(N)=N\[H])[C@@H]1O [Streptomycin] |  |  |  | complete suppression of growth |  |  |  | 
7 | O=C1NC(=S)NC(=O)C1C(c1ccc([N+](=O)[O-])cc1)C1C(=O)NC(=S)NC1=O [X, 5,5'-(p-nitrobenzylidene)bis (2-thiobarbituric) acid] | 10000 | 10000 | 3000 | complete suppression of growth | 4.0 ± 0.5 IU/3·10^4 lymph/ml | 23 ± 1.0 IU/3·10^4 lymph/ml | 47 ± 0.8 IU/3·10^4 lymph/ml | LD50 at 336 h [5]: 1000 mg/kg
8 | pyridine salt of 5,5'-(p-bromobenzylidene)bisbarbituric acid [VIII] | 10000 | 2500 | 5000 |  | 0,9 ± 0,2 IU/3·10^4 lymph/ml | 1,2 ± 0,4 IU/3·10^4 lymph/ml | 3,8 ± 0,4 IU/3·10^4 lymph/ml | 
9 | pyridine salt of 5,5'-(p-chlorobenzylidene)bis(2-thiobarbituric) acid [IV] | 10000 | 2000 | 4000 |  | 1,3 ± 0,5 IU/3·10^4 lymph/ml | 3,7 ± 1,0 IU/3·10^4 lymph/ml | 23,0 ± 1,7 IU/3·10^4 lymph/ml | 
